# Measured values taken from patent US20110288082A1, “METHODS AND COMPOSITIONS FOR INHIBITION OF THE TRANSITIONAL ENDOPLASMIC RETICULUM ATPASE” (priority 2010, published 2011).
# Read-outs that look alike come from different tables or passages of the source.
# Tests used:
# [1] = target: p97 (Homo sapiens, UniProt P55072); test: p97 ATPase assay (Kinase Glo Plus; biomol green for compounds that interfere with luciferase); assay type: biochemical
# Protocol: Assay Buffer (20 μL of 2.5× concentration, where 1×=50 mM Tris pH 7.4, 20 mM MgCl2, 1 mM EDTA, 0.5 mM TCEP) was dispensed into each well of a 96 well plate. Purified p97 (25 μL of 50 μM) was diluted in 975 μL, of 1× Assay Buffer and 10 μL was dispensed in each well. Test compound (10 μL) or 5% DMSO (10 μL) was then added to each well and the plate was incubated at room temperature for 10 min. The ATPase assay was carried out by adding to each well 10 μL of 500 μM ATP (pH 7.5), incubating at room temperature for 60 min, and then adding 50 μL Kinase Glo Plus reagent (Promega) followed by a final 10 min incubation at room temperature in the dark. Luminescence was read on an Analyst AD (Molecular Devices). Compounds were assayed at a range of concentrations (0, 0.048, 0.24, 1.2, 6, 30 μM) in triplicate. The percent of remaining activity for each reaction was calculated using the following mathematical expression: ((Test Compound-High Control)/(Low Control-High Control))*100. Test_Compound is defined as wells containing test compound, Low_Control is defined as wells containing DMSO, High_Control is defined as wells containing no p97 protein. […] The result was expressed as mean +/− standard error. For assays with Myriad 12 and 19, 100 μL of biomol green reagent (Enzo Life Sciences) was added to each well instead of kinase Glo Plus (Promega) and absorbance at 630 nm was measured. This was done because these compounds interfered with luciferase activity. […]
# [2] = system: p97-dependent Ub^G76V-GFP degradation in HeLa cells; test: Ub^G76V-GFP degradation (turn-over) assay; assay type: cell-based, human; settings: Homo sapiens, HeLa
# Protocol: Ub^G76V-GFP Degradation Assay
# Two GFP images with 100 ms exposure time per well were acquired and the average GFP intensity per area of a HeLa cell was determined by using MetaXpress software. Mean GFP intensity of 300-500 cells was calculated using Excel. Normalized GFP intensity was calculated using the following formula: (Test compound−Background)/(Basal GFP intensity—Background). Where: Test compound is defined as Mean GFP intensity of Ub^G76V-GFP-expressing cells treated with the test compound. Background is defined as background GFP intensity of HeLa cells. Basal GFP intensity is defined as mean GFP intensity of Ub^G76V-GFP-expressing cells treated with DMSO. […] The percent of remaining k for each compound is calculated using the following formula: (Test compound/DMSO control)*100. Where: Test_compound is defined as k determined from wells containing test compound, DMSO control is defined as k determined from wells containing DMSO.
# [3] = purified p97, ATP, 60 min room temperature, mean +/- standard error
# [4] = read-out: IC50 (μM) Ub^G76V-GFP turn over, Ub^G76V-GFP-expressing HeLa cells, degradation rate constant k from 90 to 180 min, mean +/- standard error
# [5] = read-out: IC50 (μM) Ub^G76V-GFP turn over, p97-dependent Ub^G76V-GFP degradation turn-over assay
# Sequence of p97 (P55072 2-806 limits assumed): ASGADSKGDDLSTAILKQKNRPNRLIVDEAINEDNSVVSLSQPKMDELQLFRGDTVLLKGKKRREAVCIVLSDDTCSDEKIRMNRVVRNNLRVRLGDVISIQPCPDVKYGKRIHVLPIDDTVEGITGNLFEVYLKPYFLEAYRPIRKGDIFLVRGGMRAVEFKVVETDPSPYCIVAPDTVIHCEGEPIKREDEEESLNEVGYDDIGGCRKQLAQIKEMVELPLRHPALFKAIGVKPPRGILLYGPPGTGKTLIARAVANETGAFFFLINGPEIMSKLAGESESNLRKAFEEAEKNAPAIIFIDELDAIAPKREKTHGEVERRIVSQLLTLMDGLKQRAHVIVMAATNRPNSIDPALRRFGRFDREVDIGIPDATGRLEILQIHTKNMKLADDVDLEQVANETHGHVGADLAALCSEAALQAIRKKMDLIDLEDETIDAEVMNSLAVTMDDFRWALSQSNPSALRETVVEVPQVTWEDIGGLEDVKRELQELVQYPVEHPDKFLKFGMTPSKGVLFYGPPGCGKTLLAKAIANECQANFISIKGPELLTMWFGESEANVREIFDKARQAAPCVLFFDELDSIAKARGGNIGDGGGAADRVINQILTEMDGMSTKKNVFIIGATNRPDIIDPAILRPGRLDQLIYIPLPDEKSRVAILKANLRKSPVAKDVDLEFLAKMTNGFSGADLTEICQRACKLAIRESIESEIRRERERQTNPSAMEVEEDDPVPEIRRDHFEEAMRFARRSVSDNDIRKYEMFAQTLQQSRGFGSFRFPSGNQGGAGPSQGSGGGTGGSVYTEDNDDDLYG
Compound,"IC50 [1, 3] [µM]","IC50 [2, 4] [µM]",IC50 ([1]; p97 ATPase assay) [µM],"IC50 [2, 5] [µM]"
COc1ccccc1Nc1nc(NCc2ccccc2)c2ccccc2n1 [II-11],2.2 ± 0.9,11 ± 3,,
Cc1cccc(Nc2nc(NCc3ccccc3)c3ccccc3n2)c1 [II-12],1.7 ± 0.5,3 ± 0.7,,
Brc1cccc(Nc2nc(NCc3ccccc3)c3ccccc3n2)c1 [II-15],2.5 ± 0.5,4.3 ± 0.8,,
COc1cccc(Nc2nc(NCc3ccccc3)c3ccccc3n2)c1 [II-16],2.5 ± 0.2,4.3 ± 0.7,,
Clc1ccc(Nc2nc(NCc3ccccc3)c3ccccc3n2)cc1Cl [II-17],8.1 ± 2.6,12 ± 2,,
Fc1ccc(Cl)cc1Nc1nc(NCc2ccccc2)c2ccccc2n1 [II-18],13 ± 3,13 ± 2,,
Clc1cc(Cl)cc(Nc2nc(NCc3ccccc3)c3ccccc3n2)c1 [II-19],8.2 ± 0.3,13 ± 1,,
FC(F)(F)c1cccc(Nc2nc(NCc3ccccc3)c3ccccc3n2)c1 [II-20],,,50 ± 16,21 ± 1
Ic1cccc(Nc2nc(NCc3ccccc3)c3ccccc3n2)c1 [II-21],5.2 ± 1.9,36 ± 4,,
O=[N+]([O-])c1cccc(Nc2nc(NCc3ccccc3)c3ccccc3n2)c1 [II-22],5.2 ± 0.5,19 ± 2,,
Cc1ccc(CNc2nc(Nc3cccc(Cl)c3)nc3ccccc23)cc1 [III-1],1.4 ± 0.3,12 ± 2,,
Clc1ccc(CNc2nc(Nc3cccc(Cl)c3)nc3ccccc23)cc1 [III-2],2.8 ± 0.9,7.6 ± 2.4,,
Fc1ccc(CNc2nc(Nc3cccc(Cl)c3)nc3ccccc23)cc1 [III-3],1.5 ± 0.3,5.7 ± 1.3,,
Clc1cccc(Nc2nc(NCc3ccc(Br)cc3)c3ccccc3n2)c1 [III-4],7.4 ± 2,10 ± 3,,
COc1ccc(CNc2nc(Nc3cccc(Cl)c3)nc3ccccc23)cc1 [III-5],2.3 ± 0.6,11 ± 4,,
Cc1ccccc1CNc1nc(Nc2cccc(Cl)c2)nc2ccccc12 [III-6],4.2 ± 1.1,11 ± 3,,
Clc1cccc(Nc2nc(NCc3ccccc3Cl)c3ccccc3n2)c1 [III-7],4.7 ± 1.4,18 ± 5,,
Fc1ccccc1CNc1nc(Nc2cccc(Cl)c2)nc2ccccc12 [III-8],1.8 ± 0.5,7.8 ± 2.1,,
Clc1cccc(Nc2nc(NCc3ccccc3Br)c3ccccc3n2)c1 [III-9],4 ± 1.7,12 ± 5,,
COc1ccccc1CNc1nc(Nc2cccc(Cl)c2)nc2ccccc12 [III-10],1.6 ± 0.4,11 ± 2,,

Compound,"IC50 [1, 3] [µM]","IC50 [2, 4] [µM]",IC50 ([1]; p97 ATPase assay) [µM],"IC50 [2, 5] [µM]"
Cc1cccc(CNc2nc(Nc3cccc(Cl)c3)nc3ccccc23)c1 [III-11],2.3 ± 0.6,9.7 ± 2.7,,
Clc1cccc(CNc2nc(Nc3cccc(Cl)c3)nc3ccccc23)c1 [III-12],5 ± 1.2,15 ± 4,,
Fc1cccc(CNc2nc(Nc3cccc(Cl)c3)nc3ccccc23)c1 [III-13],1.2 ± 0.2,6.3 ± 1.7,,
Clc1cccc(Nc2nc(NCc3cccc(Br)c3)c3ccccc3n2)c1 [III-14],3.7 ± 0.9,9.9 ± 2,,
COc1cccc(CNc2nc(Nc3cccc(Cl)c3)nc3ccccc23)c1 [III-15],1 ± 0.1,9.9 ± 1.6,,
Clc1ccc(CNc2nc(NCc3ccccc3)c3ccccc3n2)cc1 [IV-2],3.1 ± 0.2,2.1 ± 0.4,,
Fc1ccc(CNc2nc(NCc3ccccc3)c3ccccc3n2)cc1 [IV-3],2.6 ± 0.2,3.4 ± 0.5,,
Brc1ccc(CNc2nc(NCc3ccccc3)c3ccccc3n2)cc1 [IV-4],4.3 ± 0.9,3.9 ± 0.3,,
COc1ccc(CNc2nc(NCc3ccccc3)c3ccccc3n2)cc1 [IV-5],3 ± 0.5,1.3 ± 0.2,,
Cc1ccccc1CNc1nc(NCc2ccccc2)c2ccccc2n1 [IV-6],2.7 ± 0.5,1.9 ± 0.4,,
Clc1ccccc1CNc1nc(NCc2ccccc2)c2ccccc2n1 [IV-7],5.3 ± 1.2,2.9 ± 0.9,,
Fc1ccccc1CNc1nc(NCc2ccccc2)c2ccccc2n1 [IV-8],2.9 ± 0.4,2.8 ± 0.4,,
Brc1ccccc1CNc1nc(NCc2ccccc2)c2ccccc2n1 [IV-9],2 ± 0.3,3.8 ± 0.7,,
COc1ccccc1CNc1nc(NCc2ccccc2)c2ccccc2n1 [IV-10],3.6 ± 0.8,1.9 ± 0.2,,
Cc1cccc(CNc2nc(NCc3ccccc3)c3ccccc3n2)c1 [IV-11],2.3 ± 0.4,2.5 ± 0.5,,
Clc1cccc(CNc2nc(NCc3ccccc3)c3ccccc3n2)c1 [IV-12],2.7 ± 0.1,2.5 ± 0.4,,
Clc1ccc(CNc2nc(NCc3ccccc3)c3ccccc3n2)cc1Cl [IV-17],3 ± 0.5,1.9 ± 0.2,,
FC(F)(F)c1cc(CNc2nc(NCc3ccccc3)c3ccccc3n2)ccc1Cl [IV-18],4.7 ± 1,2.2 ± 0.4,,
c1ccc(CNc2nc(N3CCOc4ccccc43)nc3ccsc23)cc1 [IX],0.4 ± 0.1,6.4 ± 1,,
Brc1cccc2c(NCc3ccccc3)nc(NCc3ccccc3)nc12 [V1-9],3.3 ± 0.9,30 ± 2,,

Compound,"IC50 [1, 3] [µM]","IC50 [2, 4] [µM]",IC50 ([1]; p97 ATPase assay) [µM],"IC50 [2, 5] [µM]"
COc1c(Cl)cccc1Nc1nc(NCc2ccccc2)c2ccccc2n1 [V-1],0.9 ± 0.2,6.3 ± 1.7,,
Cc1c(F)cccc1Nc1nc(NCc2ccccc2)c2ccccc2n1 [V-2],0.9 ± 0.1,3.7 ± 0.8,,
Cc1cc(F)cc(Nc2nc(NCc3ccccc3)c3ccccc3n2)c1 [V-3],0.7 ± 0.05,5.4 ± 0.8,,
COc1c(F)cccc1Nc1nc(NCc2ccccc2)c2ccccc2n1 [V-4],1.7 ± 0.5,12 ± 3,,
Cc1c(Cl)cccc1Nc1nc(NCc2ccccc2)c2ccccc2n1 [V-5],0.7 ± 0.1,5.5 ± 1,,
Cc1ccc(F)cc1Nc1nc(NCc2ccccc2)c2ccccc2n1 [V-6],0.8 ± 0.1,5 ± 1,,
Cc1ccc(Nc2nc(NCc3ccccc3)c3ccccc3n2)cc1F [V-7],0.9 ± 0.2,5.2 ± 1.2,,
COc1ccc(Nc2nc(NCc3ccccc3)c3ccccc3n2)cc1F [V-8],0.9 ± 0.1,4.7 ± 0.8,,
Cc1ccc(Cl)cc1Nc1nc(NCc2ccccc2)c2ccccc2n1 [V-9],0.8 ± 0.07,7 ± 1.5,,
COc1ccc(Cl)cc1Nc1nc(NCc2ccccc2)c2ccccc2n1 [V-10],1.1 ± 0.2,16 ± 6,,
COc1ccc(F)cc1Nc1nc(NCc2ccccc2)c2ccccc2n1 [V-11],6.7 ± 3,9.3 ± 1,,
Clc1cccc2nc(NCc3ccccc3)nc(NCc3ccccc3)c12 [VI-1],2.2 ± 0.7,16 ± 2,,
Fc1cccc2nc(NCc3ccccc3)nc(NCc3ccccc3)c12 [VI-2],1.2 ± 0.3,13 ± 2,,
Clc1ccc2nc(NCc3ccccc3)nc(NCc3ccccc3)c2c1 [VI-3],1.6 ± 0.4,6.6 ± 0.9,,
COc1cc2nc(NCc3ccccc3)nc(NCc3ccccc3)c2cc1OC [VI-4],4.4 ± 1.8,8.8 ± 1.5,,
"COc1cccc2c(NCc3ccccc3)nc(NCc3ccccc3)nc12 [VI-5, N2,N4-dibenzyl-8-methoxyquinazoline-2,4-diamine]",0.6 ± 0.06,10 ± 2,,
Cc1ccc2c(NCc3ccccc3)nc(NCc3ccccc3)nc2c1 [VI-6],2.2 ± 0.4,6.1 ± 1.6,,
FC(F)(F)c1ccc2c(NCc3ccccc3)nc(NCc3ccccc3)nc2c1 [VI-7],9.1 ± 2,19 ± 1,,
N#Cc1ccc2c(NCc3ccccc3)nc(NCc3ccccc3)nc2c1 [VI-8],,,25 ± 10,21 ± 3
Fc1cccc2c(NCc3ccccc3)nc(NCc3ccccc3)nc12 [VI-10],3.1 ± 0.5,18 ± 2,,
